Our source for the IC50 values is patent EP1285920A1, “C10 Ester sustituted taxanes as antitumor agents” (Florida State University Research Foundation, Inc., priority 2001, dated 2003).

The test system of the first assay is HCT116. Briefly: In Vitro cytotoxicity measured by the cell colony formation assay. Type of assay: cell-based, human. Conditions: HCT116 colony formation; 72 h with drug, colonies counted after 7 days; ID50 = concentration producing 50% inhibition of colony formation; read-out: IN VITRO ID 50 HCT116. On the procedure: Four hundred cells (HCT116) were plated in 60 mm Petri dishes containing 2.7 mL of medium (modified McCoy's 5a medium containing 10% fetal bovine serum and 100 units/mL penicillin and […] streptomycin). The cells were incubated in a CO2 incubator at 37 °C for 5 h for attachment to the bottom of Petri dishes. The compounds identified in Example 2 were made up fresh in medium at ten times the final concentration, and then 0.3 mL of this stock solution was added to the 2.7 mL of medium in the dish. The cells were then incubated with drugs for 72 h at 37 °C. At the end of incubation the drug-containing media were decanted, the dishes were rinsed with 4 mL of Hank's Balance Salt Solution (HBSS), 5 mL of fresh medium was added, and the dishes were returned to the incubator for colony formation. The cell colonies were counted using a colony counter after incubation for 7 days.
For `CC=CC(=O)OC1C(=O)C2(C)C(O)CC3OCC3(OC(C)=O)C2C(OC(=O)c2ccccc2)C2(O)CC(OC(=O)C(O)C(NC(=O)OC(C)(C)C)C(C)C)C(C)=C1C2(C)C` (centres unmarked) [Compound 2413], the IC50 is below 10 nM.
For `CC=CC(=O)OC1C(=O)C2(C)C(O)CC3OCC3(OC(C)=O)C2C(OC(=O)c2ccccc2)C2(O)CC(OC(=O)C(O)C(NC(=O)OC(C)(C)C)c3ccoc3)C(C)=C1C2(C)C` (centres unmarked) [Compound 2380], the IC50 was below 1 nM.
Same read-out and setting: then `CC=CC(=O)OC1C(=O)C2(C)C(O)CC3OCC3(OC(C)=O)C2C(OC(=O)c2ccccc2)C2(O)CC(OC(=O)C(O)C(NC(=O)OC(C)(C)C)c3ccccn3)C(C)=C1C2(C)C` (centres unmarked) [Compound 2348], with below 1 nM.

The assay is the same for the next values; noted with them: Homo sapiens, HCT-116; read-out: IN VITRO ID 50 HCT116.
Take `CCC(=O)O[C@H]1C(=O)[C@@]2(C)[C@H]([C@H](OC(=O)c3ccccc3)[C@]3(O)C[C@H](OC(=O)[C@H](O)[C@@H](NC(=O)c4ccccc4)C4CCC4)C(C)=C1C3(C)C)[C@]1(OC(C)=O)CO[C@@H]1C[C@@H]2O` [Compound 0720]: the IC50 is below 10 nM.
As to `CC(=O)O[C@@]12CO[C@@H]1C[C@H](O)[C@@]1(C)C(=O)[C@H](OC(=O)C=C(C)C)C3=C(C)[C@@H](OC(=O)[C@H](O)[C@@H](NC(=O)OC(C)(C)C)c4ccncc4)C[C@@](O)([C@@H](OC(=O)c4ccccc4)[C@H]21)C3(C)C` [Compound 2472], the IC50 was below 1 nM.
Regarding `CC(=O)O[C@@]12CO[C@@H]1C[C@H](O)[C@@]1(C)C(=O)[C@H](OC(=O)c3ccco3)C3=C(C)[C@@H](OC(=O)[C@H](O)[C@@H](NC(=O)OC(C)(C)C)c4ccoc4)C[C@@](O)([C@@H](OC(=O)c4ccccc4)[C@H]21)C3(C)C` [Compound 2159], the IC50 is below 1 nM.
On the same count and under the same terms, next, `CC(=O)O[C@@]12CO[C@@H]1C[C@H](O)[C@@]1(C)C(=O)[C@H](OC(=O)C3CC3)C3=C(C)[C@@H](OC(=O)[C@H](O)[C@@H](NC(=O)OC(C)(C)C)c4ccccc4)C[C@@](O)([C@@H](OC(=O)c4ccccc4)[C@H]21)C3(C)C` [Compound 0882]: below 1 nM; `CCCC(=O)O[C@H]1C(=O)[C@@]2(C)[C@H]([C@H](OC(=O)c3ccccc3)[C@]3(O)C[C@H](OC(=O)[C@H](O)[C@@H](NC(=O)c4cccs4)c4ccco4)C(C)=C1C3(C)C)[C@]1(OC(C)=O)CO[C@@H]1C[C@@H]2O` [Compound 3656]: below 1 nM; `CCC(=O)O[C@H]1C(=O)[C@@]2(C)[C@H]([C@H](OC(=O)c3ccccc3)[C@]3(O)C[C@H](OC(=O)[C@H](O)[C@@H](NC(=O)OC(C)C)c4cccs4)C(C)=C1C3(C)C)[C@]1(OC(C)=O)CO[C@@H]1C[C@@H]2O` [Compound 3361]: below 1 nM.
Regarding `CC(=O)OC12COC1CC(O)C1(C)C(=O)C(OC(=O)C(C)C)C3=C(C)C(OC(=O)C(O)C(C=C(C)C)NC(=O)OC(C)(C)C)CC(O)(C(OC(=O)c4ccccc4)C21)C3(C)C` (centres unmarked) [Compound 2226], the IC50 is below 1 nM.
On the same count and under the same terms, then `CCCC(=O)O[C@H]1C(=O)[C@@]2(C)[C@H]([C@H](OC(=O)c3ccccc3)[C@]3(O)C[C@H](OC(=O)[C@H](O)[C@@H](NC(=O)c4ccccc4)C4CC4)C(C)=C1C3(C)C)[C@]1(OC(C)=O)CO[C@@H]1C[C@@H]2O` [Compound 3482], with below 1 nM.
For the compound `CC(=O)O[C@@]12CO[C@@H]1C[C@H](O)[C@@]1(C)C(=O)[C@H](OC(=O)c3cccs3)C3=C(C)[C@@H](OC(=O)[C@H](O)[C@@H](NC(=O)OC(C)(C)C)C(C)C)C[C@@](O)([C@@H](OC(=O)c4ccccc4)[C@H]21)C3(C)C` [Compound 1964], the IC50 was below 10 nM.
In the case of `CCC(=O)O[C@H]1C(=O)[C@@]2(C)[C@H]([C@H](OC(=O)c3ccccc3)[C@]3(O)C[C@H](OC(=O)[C@H](O)[C@@H](NC(=O)OC(C)(C)C)c4ccncc4)C(C)=C1C3(C)C)[C@]1(OC(C)=O)CO[C@@H]1C[C@@H]2O` [Compound 0521], the IC50 is below 1 nM.
In the case of `CC(=O)OC12COC1CC(O)C1(C)C(=O)C(OC(=O)C(C)C)C3=C(C)C(OC(=O)C(O)C(NC(=O)OC(C)(C)C)c4ccncc4)CC(O)(C(OC(=O)c4ccccc4)C21)C3(C)C` (centres unmarked) [Compound 2255], the IC50 is below 1 nM.
Turning to `CC(=O)O[C@@]12CO[C@@H]1C[C@H](O)[C@@]1(C)C(=O)[C@H](OC(=O)c3cccs3)C3=C(C)[C@@H](OC(=O)[C@H](O)[C@@H](NC(=O)OC(C)(C)C)c4ccccn4)C[C@@](O)([C@@H](OC(=O)c4ccccc4)[C@H]21)C3(C)C` [Compound 1883], the IC50 was below 10 nM.
On the same count and under the same terms, then `CC(=O)O[C@@]12CO[C@@H]1C[C@H](O)[C@@]1(C)C(=O)[C@H](OC(=O)C3CC3)C3=C(C)[C@@H](OC(=O)[C@H](O)[C@@H](NC(=O)c4ccccc4)c4ccc([N+](=O)[O-])cc4)C[C@@](O)([C@@H](OC(=O)c4ccccc4)[C@H]21)C3(C)C` [Compound 2869], with below 10 nM; and `CCC(=O)O[C@H]1C(=O)[C@@]2(C)[C@H]([C@H](OC(=O)c3ccccc3)[C@]3(O)C[C@H](OC(=O)[C@H](O)[C@@H](NC(=O)C=C(C)C)c4cccs4)C(C)=C1C3(C)C)[C@]1(OC(C)=O)CO[C@@H]1C[C@@H]2O` [Compound 4335], with below 1 nM; and `CC(=O)O[C@@]12CO[C@@H]1C[C@H](O)[C@@]1(C)C(=O)[C@H](OC(=O)c3cccs3)C3=C(C)[C@@H](OC(=O)[C@H](O)[C@@H](NC(=O)OC(C)(C)C)C4CCC4)C[C@@](O)([C@@H](OC(=O)c4ccccc4)[C@H]21)C3(C)C` [Compound 1970], with below 10 nM.
Same read-out and setting: then `CCCC(=O)N[C@@H](c1ccco1)[C@@H](O)C(=O)O[C@H]1C[C@@]2(O)[C@@H](OC(=O)c3ccccc3)[C@@H]3[C@]4(OC(C)=O)CO[C@@H]4C[C@H](O)[C@@]3(C)C(=O)[C@H](OC(=O)C3CC3)C(=C1C)C2(C)C` [Compound 4062], with below 1 nM; and `CC(=O)O[C@@]12CO[C@@H]1C[C@H](O)[C@@]1(C)C(=O)[C@H](OC(=O)C3CC3)C3=C(C)[C@@H](OC(=O)[C@H](O)[C@@H](NC(=O)c4ccccc4)c4ccncc4)C[C@@](O)([C@@H](OC(=O)c4ccccc4)[C@H]21)C3(C)C` [Compound 2855], with below 1 nM; and `CC(=O)O[C@@]12CO[C@@H]1C[C@H](O)[C@@]1(C)C(=O)[C@H](OC(=O)c3cccs3)C3=C(C)[C@@H](OC(=O)[C@H](O)[C@@H](NC(=O)OC(C)(C)C)c4ccccc4)C[C@@](O)([C@@H](OC(=O)c4ccccc4)[C@H]21)C3(C)C` [Compound 1988], with below 10 nM.
Same read-out and setting: next, `CC(=O)O[C@@]12CO[C@@H]1C[C@H](O)[C@@]1(C)C(=O)[C@H](OC(=O)c3ccco3)C3=C(C)[C@@H](OC(=O)[C@H](O)[C@@H](NC(=O)OC(C)(C)C)c4ccncc4)C[C@@](O)([C@@H](OC(=O)c4ccccc4)[C@H]21)C3(C)C` [Compound 2132]: below 1 nM; `CC(=O)O[C@@]12CO[C@@H]1C[C@H](O)[C@@]1(C)C(=O)[C@H](OC(=O)c3ccco3)C3=C(C)[C@@H](OC(=O)[C@H](O)[C@@H](NC(=O)OC(C)(C)C)c4cccs4)C[C@@](O)([C@@H](OC(=O)c4ccccc4)[C@H]21)C3(C)C` [Compound 2164]: below 1 nM; `CC(=O)O[C@@]12CO[C@@H]1C[C@H](O)[C@@]1(C)C(=O)[C@H](OC(=O)c3ccco3)C3=C(C)[C@@H](OC(=O)[C@H](O)[C@@H](NC(=O)OC(C)(C)C)C4CCC4)C[C@@](O)([C@@H](OC(=O)c4ccccc4)[C@H]21)C3(C)C` [Compound 2199]: below 10 nM.
With `CC(=O)O[C@@]12CO[C@@H]1C[C@H](O)[C@@]1(C)C(=O)[C@H](OC(=O)C3CC3)C3=C(C)[C@@H](OC(=O)[C@H](O)[C@@H](NC(=O)OCC(C)C)c4ccco4)C[C@@](O)([C@@H](OC(=O)c4ccccc4)[C@H]21)C3(C)C` [Compound 3102], the IC50 was below 1 nM.
In the case of `CCC(=O)O[C@H]1C(=O)[C@@]2(C)[C@H]([C@H](OC(=O)c3ccccc3)[C@]3(O)C[C@H](OC(=O)[C@H](O)[C@@H](NC(=O)c4cccnc4)c4cccs4)C(C)=C1C3(C)C)[C@]1(OC(C)=O)CO[C@@H]1C[C@@H]2O` [Compound 4121], the IC50 is below 10 nM.
Turning to `CCCC(=O)O[C@H]1C(=O)[C@@]2(C)[C@H]([C@H](OC(=O)c3ccccc3)[C@]3(O)C[C@H](OC(=O)[C@H](O)[C@@H](NC(=O)c4ccccc4)c4cccs4)C(C)=C1C3(C)C)[C@]1(OC(C)=O)CO[C@@H]1C[C@@H]2O` [Compound 3258], the IC50 was below 1 nM.
Same read-out and setting: then `CC(=O)O[C@@]12CO[C@@H]1C[C@H](O)[C@@]1(C)C(=O)[C@H](OC(=O)c3cccs3)C3=C(C)[C@@H](OC(=O)[C@H](O)[C@@H](NC(=O)OC(C)(C)C)c4ccncc4)C[C@@](O)([C@@H](OC(=O)c4ccccc4)[C@H]21)C3(C)C` [Compound 1954], with below 1 nM.
As to `CC(=O)OC12COC1CC(O)C1(C)C(=O)C(OC(=O)C(C)C)C3=C(C)C(OC(=O)C(O)C(NC(=O)OC(C)(C)C)c4ccco4)CC(O)(C(OC(=O)c4ccccc4)C21)C3(C)C` (centres unmarked) [Compound 2269], the IC50 is below 1 nM.
Consider `CC(=O)O[C@@]12CO[C@@H]1C[C@H](O)[C@@]1(C)C(=O)[C@H](OC(=O)C=C(C)C)C3=C(C)[C@@H](OC(=O)[C@H](O)[C@@H](NC(=O)OC(C)(C)C)c4ccccn4)C[C@@](O)([C@@H](OC(=O)c4ccccc4)[C@H]21)C3(C)C` [Compound 2464], for which the IC50 is below 1 nM.
In the case of `CCCC(=O)O[C@H]1C(=O)[C@@]2(C)[C@H]([C@H](OC(=O)c3ccccc3)[C@]3(O)C[C@H](OC(=O)[C@H](O)[C@@H](NC(=O)OCC(C)C)c4cccs4)C(C)=C1C3(C)C)[C@]1(OC(C)=O)CO[C@@H]1C[C@@H]2O` [Compound 3265], the IC50 is below 10 nM.
For `CCCC(=O)O[C@H]1C(=O)[C@@]2(C)[C@H]([C@H](OC(=O)c3ccccc3)[C@]3(O)C[C@H](OC(=O)[C@H](O)[C@@H](NC(=O)c4ccco4)c4cccs4)C(C)=C1C3(C)C)[C@]1(OC(C)=O)CO[C@@H]1C[C@@H]2O` [Compound 3352], the IC50 is below 1 nM.
